From patent US5986108A, “4-substitued-3-[1 or 2 amino acid residue]-azetidin-2-one derivatives useful as cysteine proteinase inhibitor” (Synphar Laboratories, Inc., priority 1997, dated 1999)
Read-outs that look alike come from different tables or passages of the source.

Key:
Type in all cases: biochemical
papain = target: T1, papain (Carica papaya, UniProt P00784); experiment: Assay of inhibition of papain (N-CBZ-Pro-Phe-Arg-pNA substrate)
T1 sequence (P00784 134-345): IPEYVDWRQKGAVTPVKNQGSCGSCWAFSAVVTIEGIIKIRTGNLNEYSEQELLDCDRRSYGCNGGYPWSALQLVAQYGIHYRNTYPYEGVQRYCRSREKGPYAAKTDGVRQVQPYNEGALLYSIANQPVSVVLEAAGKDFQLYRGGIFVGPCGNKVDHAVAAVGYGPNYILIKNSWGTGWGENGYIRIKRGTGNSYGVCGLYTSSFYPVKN
Protocol: To a 170 μl of enzyme-buffer mixture (enzyme:papain, diluted to give 30 mOD/min, buffer: 0.2M potassium phosphate, 1.0 mM EDTA, 5 mML Cysteine, pH6.5) a 10 μl of inhibitor (dissolved in DMSO) was added. After 10 min of incubation at room temperature, 20 μl of 10 mM substrate (N-CBZ-Pro-Phe-Arg-pNA, dissolved in DMSO) was added to initiate reaction. Reading is followed up for 3 min at the Thermomax plate reader(absorbance at 405 nm).
A plot of percentage of inhibition vs inhibitor concentration is obtained, and IC50 is determined using a linear regression calculations (concentration of inhibitor which will give 50% inhibition).

Cathepsin B = Cathepsin B (Rattus norvegicus, UniProt P00787); experiment: In vitro assay of inhibition of Cathepsin B (N-CBZ-Phe-Arg-AMC substrate)
Chain of Cathepsin B (P00787 80-339): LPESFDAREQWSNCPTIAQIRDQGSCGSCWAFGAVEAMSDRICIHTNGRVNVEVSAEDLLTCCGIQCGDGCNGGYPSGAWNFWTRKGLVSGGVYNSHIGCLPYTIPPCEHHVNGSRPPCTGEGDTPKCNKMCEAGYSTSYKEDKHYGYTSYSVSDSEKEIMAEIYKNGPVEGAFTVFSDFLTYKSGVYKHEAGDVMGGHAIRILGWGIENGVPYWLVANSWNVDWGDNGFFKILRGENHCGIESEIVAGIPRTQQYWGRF
Protocol: After 10 min of incubation at room temperature a 20 μl of 5 mM substrate (N-CBZ-Phe-Arg-AMC, dissolved in DMSO) was added to initiate reaction. Reading is followed up for 10 min at the Fluoroscan reader (excitation at 380 nm, emission at 460 nm).

Cathepsin L = Cathepsin L (Rattus norvegicus, UniProt P07154); experiment: Assay of inhibition of Cathepsin L (N-CBZ-Phe-Arg-AMC substrate)
Chain of Cathepsin L (P07154 114-334): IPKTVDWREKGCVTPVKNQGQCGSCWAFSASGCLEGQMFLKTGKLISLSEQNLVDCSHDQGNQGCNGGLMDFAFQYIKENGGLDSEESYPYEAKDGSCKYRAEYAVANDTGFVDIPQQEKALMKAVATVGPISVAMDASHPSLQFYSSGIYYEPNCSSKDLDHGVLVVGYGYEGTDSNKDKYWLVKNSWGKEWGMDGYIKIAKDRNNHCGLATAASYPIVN
Protocol: After 10 min of incubation at room temperature a 20 μl of 1 mM substrate (N-CBZ-Phe-Arg-AMC, dissolved in DMSO) was added to initiate reaction. Reading is followed up for 10 min at the Fluoroscan reader (excitation at 380 nm, emission at 460 nm).

[1] = pH6.5, 10 min preincubation at room temperature, read-out: IC50, Papain
[2] = r rat CathL, pH5.0, 10 min preincubation at room temperature, read-out: IC50, Cathepsin L
[3] = r rat CathB, pH5.1, 10 min preincubation at room temperature, read-out: IC50, Cathepsin B

Row | Structure (SMILES) | IC50 (papain; [1]) | IC50 (Cathepsin B) | IC50 (Cathepsin L; [2]) | IC50 (papain) | IC50 (Cathepsin B; [3]) | IC50 (Cathepsin L)
1 | CC(=O)N[C@@H](CC(C)C)C(=O)N[C@@H](CC(C)C)C(=O)N[C@H](C=O)CCCNC(=N)N [Leupeptin, reference compound] | 0.012 µM | 0.013 µM | 0.008 µM | – | – | –
2 | CC(=O)O[C@@H]1NC(=O)[C@H]1NC(=O)[C@H](C)NC(=O)OCc1ccccc1 [Example 33, (3S,4S)-3-(N-benzyloxycarbonyl-L-alanyl)-amino-4-acetoxy-azetidin-2-one] | – | – | 35.9 µM | 7.03 µM | 14.3 µM | –
3 | CC(C)C[C@H](NC(=O)[C@H]1O[C@@H]1C(=O)O)C(=O)NCCCCN=C(N)N [Example E-64, reference compound] | 0.0025 µM | – | 0.015 µM | – | 0.005 µM | –
4 | CC(=O)N[C@@H](Cc1ccccc1)C(=O)N[C@@H]1C(=O)N[C@H]1OC(C)=O [Example 9] | 0.228 µM | – | 2.7 µM | – | 42.3 µM | –
5 | CC(=O)O[C@@H]1NC(=O)[C@H]1NC(=O)[C@H](CC(C)C)NC(=O)OCc1ccccc1 [Example 8, (3S,4S)-3-(N-benzyloxycarbonyl-L-leucyl)-amino-4-acetoxy-azetidin-2-one] | – | – | – | 0.731 µM | – | 0.03 µM
6 | N[C@@H](Cc1ccc(O[C@@H]2NC(=O)[C@H]2NC(=O)[C@H](Cc2ccccc2)NC(=O)CCc2ccccc2)cc1)C(=O)O [Example 29B, (3S,4S)-3-{N-(3-phenylpropionoyl)-L-phenylalanyl}-amino-4-{4-(L-2-amino-2-carboxy-ethyl)-phenoxy}-azetidin-2-one] | – | – | 0.292 µM | 0.368 µM | > 46 µM | –
7 | C[C@H]1[C@H](NC(=O)[C@H](Cc2ccccc2)NC(=O)OCc2ccccc2)C(=O)N1S(=O)(=O)O [Example 5, Potassium (3S,4S)-3-(N-benzyloxycarbonyl-L-phenylalanyl)-amino-4-methyl-azetidin-2-one-1-sulfonate] | – | – | – | > 25 µM | > 25 µM | –
8 | O=C(N[C@@H](Cc1ccccc1)C(=O)N[C@H]1CNC1=O)OCc1ccccc1 [Example 2, (3S)-3-(N-benzyloxycarbonyl-L-phenylalanyl)-amino-azetidin-2-one] | – | – | – | 15.8 µM | 4.81 µM | –
